Assay results taken from patent publication US11020374B2, “Sulcardine salts” (HUYA Bioscience International, LLC, priority 2019, dated 2021).
Values joined by “and” are separate entries in the source; they are usually repeats but may differ in a detail not shown here. Equal values may be shown once. Where a name gives a salt, the structure may show the parent alone.

Assays:
[1] = GVS (gravimetric vapor sorption) with post-GVS XRPD; format: physicochemical; conditions: 40-90-0-40% RH, 25° C., two cycles
Description: Form II was first observed during the GVS characterization of Form I. The material collected post-GVS analysis of Form I was analyzed by XRPD. […] The XRPD reference is “LNB15318-53-1-PostGVS” in FIG. 34.
Approximately 26 mg of Form I was placed into a mesh vapor sorption balance pan and loaded into an IGASorp Moisture Sorption Analyser balance by Hiden Analytical. The sample was subjected to a ramping profile from 40-90% relative humidity (RH) at 10% increments, maintaining the sample at each step until a stable weight had been achieved (98% step completion, minimum step length 30 minutes, maximum step length 60 minutes) at 25° C. After completion of the sorption cycle, the sample was dried using the same procedure to 0% RH, and finally taken back to the starting point of 40% RH. Two cycles were performed. The weight change during the sorption/desorption cycles were plotted, allowing for the hygroscopic nature of the sample to be determined. The material collected post-GVS analysis was analyzed by XRPD.

[2] = Dynamic vapor sorption (DVS) experiment; format: physicochemical; conditions: for crystalline form of the salt before the DVS experiment and afterwards: XRPD form before vs after DVS; for uptake of water (DVS): at 90% RH
[3] = Solubility in 20 mM buffers (Example 3), slurried ca. 72 hr, HPLC concentration; format: physicochemical; conditions: pH 1.2
Description: 20 mM buffers were prepared to pH 1.2 (HCl/KCl), pH 3.0 (HCl/glycine), pH 4.0 (citric acid/sodium citrate) and pH 7.4 (potassium phosphate monobasic/NaOH). To 0.5 mL of each buffer, the appropriate salt was added to form a slurry. The pH of the slurry was measured and adjusted back to the desired pH (i.e., the initial pH of the buffer) if necessary using 0.2 M buffer components (e.g. 0.2 M HCl(aq)). […] After this time, if solid remained, the pH was again adjusted back to the desired pH if necessary using 0.2 M buffer components. If no solid remained, additional solid was added to reform the slurry before the pH was again adjusted back to the desired pH if necessary using 0.2 M buffer components. All samples were then slurried for a further 2 hr before being analysed by HPLC for concentration.

[4] = cited from earlier work; for pKa 1: first pKa
[5] = Sulcardine salts PK analysis, oral capsule administration; format: in vivo; conditions: single oral capsule administration, fasted male Beagle dogs
Description: The pharmacokinetic objective of this study was to assess the exposure to sulcardine following oral capsule administration or intravenous (IV) infusion of sulcardine sulfate salt, sulcardine naphthoate salt, or sulcardine mono-edisylate salt (Form II) to male dogs during a pharmacokinetic study.
Non-naïve Beagle Dogs were fasted. Dosing formulations (oral [PO] capsule and intravenous [IV] infusion) were prepared on the day prior to dosing. The IV formulations were made in 10 mM Glycine (pH adjusted to 3.0±0.1), 3% Mannitol, qs in Sterile Water for Injection, USP were filtered through a 0.22 μm PVDF filter and stirred for at least 30 minutes prior to dosing. The capsule doses were encapsulated as active pharmaceutical ingredient powder into the appropriate number of […] gelatin capsules on the day prior to dosing.
Oral dosing was once on Day 1 by oral capsule administration; IV dosing was once on Day 1 by IV infusion over approximately 45 minutes (±2 minutes).
The blood samples for animals dosed orally were collected at 0.5, 1, 2, 3, 5, 8, 12, 18, 24, and 36 hours postdose. The blood samples for animals dosed IV were collected at approximately 0.33, 0.75 (end of infusion), 1.5, 3, 6, 9, 12, 18, and 24 hours post the start of infusion.
The blood samples were centrifuged under refrigerated (2° C. to 8° C.) conditions at 3,200 RPM for 10 minutes and the resulting plasma was divided into two aliquots (150 μL and remaining) then frozen and shipped for bioanalysis. Plasma samples were analyzed for concentrations of sulcardine by Citoxlab North America, Laval, Québec, Canada.
Individual sulcardine plasma concentration time profiles from sulcardine sulfate salt, sulcardine mono-edisylate salt, or sulcardine naphthoate salt treated animals were analyzed using model-independent methods (Gibaldi M, Perrier D. Pharmacokinetics. 2nd ed. New York: Marcel Dekker, Inc., 1982:409-17). Pharmacokinetic parameters were obtained/calculated for each animal on Day 1.

[6] = One-week stability studies (40° C./75% RH, 80° C., ambient light) by XRPD and HPLC; format: physicochemical; conditions: for HPLC purity after stability experiment: 99% before; for stability by XRPD / appearance: one week at 80° C. and ambient humidity
Description: For all of the stability studies provided herein under the condition of 40° C. and 75% RH, samples were in an uncapped vial and stored in a stability chamber set to 40° C./75% RH. For the 80° C. studies, samples were in a sealed vial and placed in an oven set to 80° C. For the ambient light studies, the samples were in a sealed vial placed on a windowsill in the lab which was exposed to ambient natural and artificial light.

[7] = increase in relative humidity (RH) from about 10% to about 90%
[8] = one week at 40° C. and 75% RH, uncapped vial
[9] = one week under ambient light conditions, sealed vial
[10] = one week under ambient light conditions

| Structure (SMILES) | mass increase [2, 7] | crystalline form of the salt before the DVS experiment and afterwards [2] | uptake of water (DVS) [2] | stability by XRPD [6, 8] | HPLC purity after stability experiment ([6]; one week at 40° C. and 75% RH) | stability by XRPD / appearance ([6]; sealed vial) | HPLC purity after stability experiment ([6]; one week at 80° C.) | stability by XRPD [6, 9] | HPLC purity after stability experiment [6, 10] | other results |
| --- | --- | --- | --- | --- | --- | --- | --- | --- | --- | --- |
| COc1ccc(NS(=O)(=O)c2cc(CN3CCCC3)c(O)c(CN3CCCC3)c2)cc1.O=S(=O)(O)CCS(=O)(=O)O [Example 17, mono-ethane-1,2-disulfonic acid salt of sulcardine] |  |  |  |  |  |  |  |  |  | XRPD of material collected post-GVS analysis [1]: A new pattern (denoted Form II) was observed |
| COc1ccc(NS(=O)(=O)c2cc(CN3CCCC3)c(O)c(CN3CCCC3)c2)cc1.O=C(O)c1ccc2ccccc2c1O [Example 8, 1-hydroxy-2-naphthoic acid salt of sulcardine] | about 0.7% |  |  |  |  |  |  |  |  | Crystallinity of the material in the solubility experiment [3]: loses crystallinity |
| O=S(=O)(O)CCS(=O)(=O)O [1,2-Ethanedisulfonic acid] |  |  |  |  |  |  |  |  |  | pKa 1 [4]: −2.06 |
| COc1ccc(S(=O)(=O)NCc2cc(CN3CCCC3)c(O)c(CN3CCCC3)c2)cc1 [sulfate salt, Sulcardine sulfate, reference compound] |  |  |  |  |  |  |  |  |  | Cmax ([5]; dog, plasma, group average): 2820 ng/mL; Tmax ([5]; dog, plasma, median, read-out: Tmax (median peak sulcardine plasma concentration)): 2 h |
| COc1ccc(S(=O)(=O)NCc2cc(CN3CCCC3)c(O)c(CN3CCCC3)c2)cc1 [Example 12, sulcardine hydrochloride] | about 2.2% | the same | about 2.2% | unchanged | 98% | changed into an orange gel | 90% | unchanged | 99% |  |
| COc1ccc(S(=O)(=O)NCc2cc(CN3CCCC3)c(O)c(CN3CCCC3)c2)cc1 [Sulcardine free base comparator, 4-methoxy-N-(3,5-bis-(1-pyrrolidinylmethyl)-4-hydroxybenzyl)benzene sulfonamide] |  |  |  |  |  |  |  |  |  | pKa 1 [4]: 6.00; pKa 2 ([4]; second pKa): 10.57; pKa 3 ([4]; third pKa): 11.65 |
| COc1ccc(NS(=O)(=O)c2cc(CN3CCCC3)c(O)c(CN3CCCC3)c2)cc1.COc1ccc(NS(=O)(=O)c2cc(CN3CCCC3)c(O)c(CN3CCCC3)c2)cc1.O=S(=O)(O)CCS(=O)(=O)O [Example 14, hemi-ethane-1,2-disulfonic acid salt of sulcardine] | about 0.5% | the same | about 0.5% | unchanged | 98% | unchanged | 97% | unchanged | 97% |  |
| COc1ccc(NS(=O)(=O)c2cc(CN3CCCC3)c(O)c(CN3CCCC3)c2)cc1.O=S(=O)(O)c1cccc2c(S(=O)(=O)O)cccc12 [Example 5, naphthalene-1,5-disulfonic acid salt of sulcardine] |  | the same | about 3.3% | unchanged | 99% | unchanged | 99% | unchanged | 99% | mass increase ([2]; increase in relative humidity (RH) from about 5% to about 95%): about 3.3% |
| COc1ccc(NS(=O)(=O)c2cc(CN3CCCC3)c(O)c(CN3CCCC3)c2)cc1.O=S(=O)(O)c1ccc2ccccc2c1 [Example 10, naphthalene-2-sulfonic acid salt of sulcardine] |  |  |  | unchanged | 99% and 98% | changed into an orange gel | 90% | unchanged by XRPD but had turned pale yellow | 99% and 97% | stability by XRPD / appearance ([6]; sealed vial, listed as Example 9): unchanged; HPLC purity after stability experiment ([6]; one week at 80° C., listed as Example 9): 99%; stability by XRPD ([6]; one week under ambient light conditions, sealed vial, listed as Example 9): unchanged |
| COc1ccc(NS(=O)(=O)c2cc(CN3CCCC3)c(O)c(CN3CCCC3)c2)cc1.O=S(=O)(O)CCS(=O)(=O)O [Example 18, mono-ethane-1,2-disulfonic acid salt of sulcardine] |  |  |  |  |  |  |  |  |  | Cmax of sulcardine in plasma ([5]; group average): 4570 ng/mL; Tmax (median peak sulcardine plasma concentration) ([5]; median): 0.5 h |
